Read-outs that look alike come from different tables or passages of the source.
How the values were obtained:
GLAST = target: T1, GLAST (Rattus norvegicus, UniProt P24942); conditions: at concentrations below 1 mM; cited from earlier work
T1 sequence (P24942 1-543): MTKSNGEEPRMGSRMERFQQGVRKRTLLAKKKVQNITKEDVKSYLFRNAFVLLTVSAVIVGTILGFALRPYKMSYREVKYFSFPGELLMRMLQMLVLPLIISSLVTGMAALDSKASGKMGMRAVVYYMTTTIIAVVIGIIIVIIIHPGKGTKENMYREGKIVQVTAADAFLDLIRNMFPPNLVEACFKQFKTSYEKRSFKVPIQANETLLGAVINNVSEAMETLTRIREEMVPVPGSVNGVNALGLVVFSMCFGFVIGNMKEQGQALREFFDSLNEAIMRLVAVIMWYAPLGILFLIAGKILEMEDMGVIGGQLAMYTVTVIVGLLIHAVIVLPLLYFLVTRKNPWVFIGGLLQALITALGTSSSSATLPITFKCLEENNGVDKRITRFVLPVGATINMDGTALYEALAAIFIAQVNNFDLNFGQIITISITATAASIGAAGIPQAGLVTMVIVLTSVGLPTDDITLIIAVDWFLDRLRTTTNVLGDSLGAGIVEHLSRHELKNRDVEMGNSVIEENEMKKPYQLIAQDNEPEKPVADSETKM

[1] = target: T2, glutamate transporters (GLAST and GLT1); experiment: [3H]-4MG binding to rat brain membrane homogenates; conditions: for displacement of 4MG binding: at or above 100 μM, FIG. 5; for IC50: read-out: IC50 for displacement of [3H]-4MG binding
T2 construct: Bmax; other: rat brain membrane homogenates; other: 20 nM [3H]-4MG, 15 minutes at 4° C; KD; association t½
Protocol: (§1) Rat brain tissue, either freshly dissected or stored frozed at −20° C. is homogenized in HEPES buffer containing Na^+(5 mM HEPES, 96 mM NaCl, 1.8 mM CaCl2, 1 mM MgCl2 (pH 7.5 at 25° C.)), and membranes are washed twice in the same buffer using standard methods for subcellular fractionation and the preparation of brain membranes. Brain tissue is weighed and homogenized in 15 ml of assay buffer using a Polytron tissue homogenizer (setting 4, 10-15 seconds). […] The homogenate is centrifuged again (as above) and the pellet re-suspended in 20 to 25 volumes of buffer. Membrane homogenates make up 20% of final assay volume. Binding assays are also performed in the above buffer.
(§2) The range of concentrations of the receptor compound (for example, 10 nM-1 mM) is varied dependent on whether all or only a trace of the receptor compound is labeled. Following incubation of the receptor compounds (bound to the transporters) in the presence or absence of test compounds, binding is terminated by rapid filtration through Whatman GF/B filter discs and washing 3 times with buffer using a Brandel cell harvester. Binding is determined by any technique suitable for the label used. For isotope labels, scintillation spectrometry is preferred.
(§3) Forebrain tissue from female Sprague Dawley rats was homogenised in HEPES buffer containing Na^+, and membranes were washed twice in the same buffer. Binding experiments were also performed in this buffer. […] Binding was determined by scintillation spectrometry. A full range of association, dissociation, saturation and inhibition studies was performed over varying incubation times (up to 60 min). Data were analyzed using computer-assisted curve fitting. Values are expressed as mean of at least triplicate determinations and multiple experiments.
(§4) A full range of association, dissociation, saturation and inhibition studies was performed over varying incubation times (up to 60 min). Data were analyzed using computer-assisted curve fitting. Values cited are expressed as mean of at least triplicate determinations and multiple experiments.

[2] = tested on: glutamate transporters (GLAST and GLT1); experiment: [3H]-4MG binding to rat brain membrane homogenates; conditions: FIG. 5
Protocol: as §1, §2, §3, §4

[3] = Hydrolysis of prodrug to the acid form; type: in vitro ADME; conditions: prodrug ester cleavage
From the text: The ester, carbonate, and amine bond in any prodrug forms of compounds identified by the disclosed method can be readily cleaved in vivo. Therefore, prodrug compositions can be hydrolyzed to the corresponding acids form in plasma.

[4] = 20 nM [3H]-4MG, 15 minutes at 4° C., FIG. 3, FIG. 4

## CC(CC(=O)O)C(N)C(=O)O (racemic) [3MG, (±)-threo-3-methylglutamate]
GLAST
  binding to GLAST: do not bind

## C[C@H](C[C@H](N)C(=O)O)C(=O)O [4MG, (2S,4R)-4-methyl glutamic acid]
[1]; rat brain membrane homogenates, FIG. 1
  Kd: 5.4 µM

## Cc1onc(O)c1CC(N)C(=O)O (stereo not drawn) [AMPA, α-amino-3-hydroxy-5-methyl-4-isoxazolepropionate]
[1]
  displacement of 4MG binding: failed to significantly displace

## CC(C)(C)c1o[nH]c(=O)c1CC(N)C(=O)O (stereo not shown) [ATPA]
[2]
  effect on 4MG and/or D-aspartate binding to GluTs: failed to affect

## N[C@H](C(=O)O)[C@H]1C[C@H]1C(=O)O [CCG-III, (2S,3S,4R)-2-(carboxycyclopropyl)glycine]
[1]; [4]
  IC50: 1.2 µM

## CC(C)[C@H]1CN[C@H](C(=O)O)[C@H]1CC(=O)O [DHK, L-Dihydrokainate]
GLAST
  binding to GLAST: do not bind

## N[C@@H](Cn1cc(F)c(=O)[nH]c1=O)C(=O)O [FW, fluorowillardiine]
[1]
  displacement of 4MG binding: failed to significantly displace

## NCCCC(=O)O [GABA, γ-aminobutyric acid]
[2]
  effect on 4MG and/or D-aspartate binding to GluTs: failed to affect

## NCC(=O)O [GLY, glycine]
[2]
  effect on 4MG and/or D-aspartate binding to GluTs: failed to affect

## N[C@@H](Cn1cc(I)c(=O)[nH]c1=O)C(=O)O [IW, iodowillardine]
[2]
  effect on 4MG and/or D-aspartate binding to GluTs: failed to affect

## C=C(C)[C@H]1CN[C@H](C(=O)O)[C@H]1CC(=O)O [KA, kainate]
GLAST
  binding to GLAST: do not bind

## N[C@@H](CC(=O)O)C(=O)O [L-aspartate]
[1]; [4]
  IC50: 7.5 µM

## CN[C@H](CC(=O)O)C(=O)O [NMDA, N-methyl-D-aspartate]
[1]
  displacement of 4MG binding: failed to significantly displace

## O=C(O)[C@H]1CN[C@H](C(=O)O)C1 [PDC, L-trans-pyrrolidine-2,4-dicarboxylate]
[1]; [4]
  IC50: 2.9 µM

## N[C@@H](COS(=O)(=O)O)C(=O)O [SOS, L-serine-O-sulphate]
[1]
  IC50: 40 µM

## COC(=O)[C@H](C)C[C@H](N)C(=O)OC [compound 2, (2S,4R)-4-methyl glutamic acid dimethyl ester]
[3]
  hydrolysis to (2S,4R)-4-methyl glutamic acid (1): readily hydrolyzed
